Laboratory results published in patent US9415034B2, “Inhibitors and enhancers of uridine diphosphate-glucuronosyltransferase 2B (UGT2B)” (NATIONAL DEFENSE MEDICAL CENTER, priority 2005, dated 2016).

Test system: UGT2B
Assay: in vitro
Settings: for inhibition at 60 min, 8.5 μM / inhibition at 60 min, 85 μM / inhibition at 60 min, 850 μM / inhibition at 60 min, 8.5 µM / inhibition at 60 min, 85 µM / inhibition at 60 min, 850 µM / inhibition at 60 min: male, Sprague-Dawley, rat; for inhibition at 60 min, 8.5 μM / inhibition at 60 min, 85 μM / inhibition at 60 min, 850 μM / inhibition at 60 min, 8.5 µM / inhibition at 60 min, 85 µM / inhibition at 60 min, 850 µM: % Inhibition (Mean ± SD)
Description: In the following experiment, 27 different kinds of CHEs and 10 different excipients were used as UGT2B inhibitor in this invention. These CHEs are pure compounds available commercially, and were purchased from Sigma Chemical Co., Nacalai Tesque (Kyoto, Japan) and Indofine Chemical Co., Inc. (Somerville, N.J.). These UGT2B inhibitors are dissolved in alcohol at the concentration of 1, 10, 100 μM for the following experiment.
These excipients are dissolved in water and make up to 0.5%, 5%, 50% (wt %, w/v) for the following experiment. (Note: BRIJ is a registered trademark of ICI Americas, Inc.; Pluronic is a registered trademark of BASF Corporation.)
The Sprague-Dawley male rats, weighted 300-400 g are used as model animals in these experiments. The microsome is prepared as follows: • i. Sacrifice a rat after 12-16 hours fasting, take its liver; wipe dry the liver and weigh it. • ii. Add 300% (by volume) of cold 0.3M sucrose solution, and homogenize the liver. • iii. Centrifuge the homogenized liver suspension at 9000×g speed (KS-800, Kubota, made in Japan) for 10 min at 4° C. Collect the supernatant. • iv. Centrifuge the supernatant at 105,000×g speed (L8-60M, Beckman, made in USA) for 60 min at 4° C. • v. Remove the supernatant, add 0.3M sucrose (of the same volume) and repeat the homogenization. The homogenized liver suspension is the microsome. Store the microsome at −70° C.
Thaw the microsome before use. Add 5 μl/ml BRIJ®35 (Fisher et al. 2000, Drug Metabolism & Disposition. 28(5):560-6) into microsome by a ratio of microsome:BRIJ®35=8:1 (v/v).
The protein amount is determined as follows: • i. Take 0.1 ml microsome and dilute to 5 ml 0.85% NaCl (50-fold dilution, v/v). Take 0.2 ml of the diluted microsome and place it in a capped test tube (triple experiments). Separately, replacing microsome with 0.2 ml NaCl as the control. • ii. Add 2.2 ml Biuret regent (SIGMA, 690-A) into each test tube, mix well and store at room temperature for 10 min. • iii. Add 0.1 ml folin regent (SIGMA, 690-A), mix immediately, and store at room temperature for 30 min. Measure the absorbance at 550 nm wave length within the 30 min. Measure the concentration of protein in microsome based on the standard curve generated by various bovine albumin concentration and absorbance. 4. The Measurement of the Inhibition of UGT2B Activity in vitro • i. […] Mix solution (A) and 17 μl solution (B) thoroughly, place in a 37° C. water bath and shake at 125 rpm for 60 min. • iii. Add 1 ml ACN to interrupt the reaction. • iv. Centrifuge at 130,000×g speed at 4° C. for 5 min, and • v. […] 5.
Set the Ultra-violet detector's (SPD-10A, Shimadzu, Kyoto, made in Japan) wave length to 210 nm.
Those CHEs are commercially available pure compounds, acquired from Sigma Chemical Co., Nacalai Tesque (Kyoto, Japan) and […] (Somerville, N.J.). Their categories, names, sources, and chemical compositions are described in Table 5.

[1] = Table 6, enhancer 8.5 μM, negative = enhancement
[2] = Table 6, enhancer 85 μM, negative = enhancement
[3] = Table 6, enhancer 850 μM, negative = enhancement
[4] = inhibition rate on the metabolism of nalbuphine in microsome

Compound	inhibition at 60 min, 8.5 μM [%]	inhibition at 60 min, 85 μM [%]	inhibition at 60 min, 850 μM [%]	inhibition at 60 min, 8.5 µM [%]	inhibition at 60 min, 85 µM [%]	inhibition at 60 min, 850 µM [%]	other results
O=c1c(O)c(-c2ccc(O)cc2)oc2cc(O)cc(O)c12 [kaempferol, Kaempferol]	-19.5 ± 14.2	-76 ± 27.3	-71.1 ± 4.51				
CCCCCCCCCCCCO [lauryl alcohol, Lauryl Alcohol]				14.4 ± 3.37	19.5 ± 3.46	6.23 ± 6.75	
O=C1C[C@@H](c2ccc(O[C@@H]3O[C@H](CO)[C@@H](O)[C@H](O)[C@H]3O)cc2)Oc2cc(O)ccc21 [liquiritin, Liquiritin]	-9.38 ± 1.8	-17.7 ± 8.51	-29.2 ± 2.74				
O=c1cc(-c2ccc(O)c(O)c2)oc2cc(O)cc(O)c12 [luteolin, Luteolin]	-25.5 ± 26.6	-28.3 ± 15.2	-17.6 ± 12.1				
O=c1cc(-c2ccc(O)c(O)c2)oc2cc(O[C@@H]3O[C@H](CO)[C@@H](O)[C@H](O)[C@H]3O)cc(O)c12 [luteolin-7-glucoside, Luteolin-7-Glucoside]							% Inhibition (Mean ± SD) [1]: −45.053 ± 3.583%; % Inhibition (Mean ± SD) [2]: −36.109 ± 9.203%; % Inhibition (Mean ± SD) [3]: −47.869 ± 26.599%
C[C@@H]1O[C@@H](O[C@H]2[C@H](Oc3cc(O)c4c(c3)O[C@H](c3ccc(O)cc3)CC4=O)O[C@H](CO)[C@@H](O)[C@@H]2O)[C@H](O)[C@H](O)[C@H]1O [narigin, Narigin]							% Inhibition (Mean ± SD) [1]: −124.10 ± 16.541%; % Inhibition (Mean ± SD) [2]: −80.70 ± 4.927%; % Inhibition (Mean ± SD) [3]: −98.15 ± 5.276%
COc1ccc([C@@H]2CC(=O)c3c(O)cc(O[C@@H]4O[C@H](CO)[C@@H](O)[C@H](O)[C@H]4O[C@@H]4O[C@@H](C)[C@H](O)[C@@H](O)[C@H]4O)cc3O2)cc1O [neohesperidin, Neohesperidin]							% Inhibition (Mean ± SD) [1]: −66.586 ± 9.614%; % Inhibition (Mean ± SD) [2]: −113.63 ± 8.986%; % Inhibition (Mean ± SD) [3]: −113.46 ± 16.721%
C[C@H](Cc1ccc(O)c(O)c1)[C@@H](C)Cc1ccc(O)c(O)c1 [nordihydroguaiaretic acid]	-142 ± 41	-165 ± 23	-188 ± 16.6				inhibition at 60 min (rate of inhibition (enhancement of the metabolism of nalbuphine in liver microsome)): -188%
CC1(C)CC[C@]2(C(=O)O)CC[C@]3(C)C(=CC[C@@H]4[C@@]5(C)CC[C@H](O)C(C)(C)[C@@H]5CC[C@]43C)[C@@H]2C1 [oleanolic acid, Oleanolic Acid]							inhibition at 60 min, 8.5 μM (liver microsomes, probe nalbuphine, Table 6, enhancer 8.5 μM, negative = enhancement): -87.2 ± 24.4%; inhibition at 60 min, 85 μM (liver microsomes, probe nalbuphine, Table 6, enhancer 85 μM, negative = enhancement): -136 ± 15.2%; inhibition at 60 min, 850 μM (liver microsomes, probe nalbuphine, Table 6, enhancer 850 μM, negative = enhancement): -129 ± 22.1%
COc1ccc([C@@H]2CC(=O)c3c(O)cc(O[C@@H]4O[C@H](CO)[C@@H](O)[C@H](O)[C@H]4O[C@@H]4O[C@@H](C)[C@H](O)[C@@H](O)[C@H]4O)cc3O2)cc1 [poncirin, Poncirin]							% Inhibition (Mean ± SD) [1]: −16.068 ± 8.122%; % Inhibition (Mean ± SD) [2]: −8.448 ± 8.261%; % Inhibition (Mean ± SD) [3]: −7.098 ± 18.196%
O=C(O)c1ccc(O)c(O)c1 [protocatechuic acid, Protocatechuic acid]	-20.2 ± 5.96	-4.56 ± 3.37	9.84 ± 1.87	-20.2 ± 5.96	-4.56 ± 3.37	9.84 ± 1.87	
O=c1c(-c2ccc(O)cc2)coc2c([C@@H]3O[C@H](CO)[C@@H](O)[C@H](O)[C@H]3O)c(O)ccc12 [puerarin, Puerarin]				3.92 ± 5.61	18.3 ± 7.68	10.1 ± 5.84	
O=c1c(O)c(-c2ccc(O)c(O)c2)oc2cc(O)cc(O)c12 [quercetin, Quercetin]	-81.4 ± 5.59	-143 ± 18.5	-119 ± 19.4				
C[C@@H]1O[C@@H](Oc2c(-c3ccc(O)c(O)c3)oc3cc(O)cc(O)c3c2=O)[C@H](O)[C@H](O)[C@H]1O [quercitrin, Quercitrin]							% Inhibition (Mean ± SD) [1]: −81.27 ± 15.027%; % Inhibition (Mean ± SD) [2]: −83.60 ± 27.446%; % Inhibition (Mean ± SD) [3]: −55.57 ± 12.151%
C[C@@H]1O[C@@H](OC[C@H]2O[C@@H](Oc3c(-c4ccc(O)c(O)c4)oc4cc(O)cc(O)c4c3=O)[C@H](O)[C@@H](O)[C@@H]2O)[C@H](O)[C@H](O)[C@H]1O [rutin, Rutin]							% Inhibition (Mean ± SD) [1]: −19.854 ± 19.742%; % Inhibition (Mean ± SD) [2]: −29.414 ± 29.485%; % Inhibition (Mean ± SD) [3]: −33.458 ± 13.373%
C=C[C@H]1[C@H](O[C@@H]2O[C@H](CO)[C@@H](O)[C@H](O)[C@H]2O)OC=C2C(=O)OCC[C@]21O [swertiamarin, Swertiamarin]							% Inhibition (Mean ± SD) (Table 2, inhibitor 8.5 μM, metabolism of nalbuphine in rat liver microsome): 28.239 ± 2.248%; % Inhibition (Mean ± SD) (Table 2, inhibitor 85 μM, metabolism of nalbuphine in rat liver microsome): 27.930 ± 4.129%; % Inhibition (Mean ± SD) (Table 2, inhibitor 850 μM, metabolism of nalbuphine in rat liver microsome): −2.499 ± 6.899%
O=C/C=C/c1ccccc1 [trans-cinnamaldehyde, Trans- Cinnamaldehyde]	-6.97 ± 3.78	-3.1 ± 9.46	18.3 ± 10.3	-6.97 ± 3.78	-3.1 ± 9.46	18.3 ± 10.3	
O=C(O)/C=C/c1ccccc1 [trans-cinnamic acid, Trans-Cinnamic Acid]	-153 ± 24.9	-109 ± 18.6	-135 ± 3.9				
O=c1ccc2ccc(O)cc2o1 [umbelliferone, Umbelliferone]	-14.7 ± 5.81	4.6 ± 8.24	-20.6 ± 18.2	-14.7 ± 5.81	4.6 ± 8.24	-20.6 ± 18.2	
COc1c(O)cc(O)c2c(=O)cc(-c3ccccc3)oc12 [wogonin, Wogonin]	-129 ± 8.29	-153 ± 6.49	-136 ± 2.88				
O=c1cc(-c2ccccc2)oc2c1ccc1ccccc12 [α-naphthoflavone, α- Naphthoflavone]				72.3 ± 2.81	97.8 ± 4.37	90.8 ± 7.17	inhibition at 60 min [4]: ≥ 30%
C=CC(=C)CCC=C(C)C [β-myrcene, β-Myrcene]				16.8 ± 1.72	35.29 ± 0.22	34.9 ± 7.3	inhibition at 60 min [4]: ≥ 30%
O=c1cc(-c2ccccc2)oc2ccc3ccccc3c12 [β-naphthoflavone, β- Naphthoflavone]				95.8 ± 5.46	86 ± 16.5	99.7 ± 15.9	inhibition at 60 min [4]: ≥ 30%
